Reference: ChEMBL document CHEMBL5042522, “One- and Two-Photon Uncaging of Carbon Monoxide (CO) with Real-Time Monitoring: On-Demand Carbazole-Based Dual CO-Releasing Platform to Test over Single and Combinatorial Approaches for the Efficient Regression of Orthotopic Murine Melanoma In Vivo” (J Med Chem, 2022)
Activity calls are given as the source filed them. The calls are words filed in the database; no cut-off is given here.

Assays:
[1] = Photorelease activity in PBS buffer at pH 7.4 assessed as release of CO using 3',6'-Bis(allyloxy)-3H-spiro(isobenzofuran-1,9'-xanthen)-3-one fluorescent probe by measuring increase in fluorescence intensity irradiated with >= 365 nm Hg lamp at 500 uM in presence of PdCl2 by fluorescence spectroscopy; type: physicochemical; conditions: pH 7.4, 500 µM, TDE = time-dependent effect
[2] = Biodistribution in liver of C57BL/6 mouse model harboring mouse B16-F10 cells at 0.4 mg/kg, iv irradiated with >= 365 nm Hg lamp for 10 mins measured after 24 hrs post-administration by fluorescence based assay; type: ADME, organism-based; conditions: in vivo, 24.17 h, time 1450 min
[3] = tested on: B16-F10; experiment: Induction of apoptosis in mouse B16-F10 cells assessed as late apoptotic cells at 5 uM incubated for 24 hrs by annexin-V-FITC and PI staining based flow cytometry analysis (reference value: 0.1 %); type: functional
[4] = Biodistribution in heart of C57BL/6 mouse model harboring mouse B16-F10 cells at 0.4 mg/kg, iv irradiated with >= 365 nm Hg lamp for 10 mins measured after 24 hrs post-administration by fluorescence based assay; type: ADME, organism-based; conditions: in vivo, 24.17 h, time 1450 min
[5] = tested on: B16-F10; experiment: Induction of apoptosis in mouse B16-F10 cells assessed as necrotic cells at 5 uM with light irradiation incubated for 24 hrs by annexin-V-FITC and PI staining based flow cytometry analysis (reference value: 0 %); type: functional
[6] = Stability of compound in PBS buffer at pH 7.4 at 100 uM incubated for 72 hrs under dark condition by RP-HPLC analysis; type: physicochemical; conditions: read-out: Stability
[7] = tested on: HEK293; experiment: Induction of apoptosis in HEK293 cells assessed as early apoptotic cells at 5 uM incubated for 24 hrs by annexin-V-FITC and PI staining based flow cytometry analysis (reference value: 0.1 %); type: functional, Homo sapiens
[8] = Biodistribution in lung of C57BL/6 mouse model harboring mouse B16-F10 cells at 0.4 mg/kg, iv irradiated with >= 365 nm Hg lamp for 10 mins measured after 24 hrs post-administration by fluorescence based assay; type: ADME, organism-based; conditions: in vivo, 24.17 h, time 1450 min
[9] = tested on: HEK293; experiment: Induction of apoptosis in HEK293 cells assessed as late apoptotic cells at 5 uM incubated for 24 hrs by annexin-V-FITC and PI staining based flow cytometry analysis (reference value: 0 %); type: functional, Homo sapiens
[10] = Toxicity in C57BL/6J mouse model harboring mouse B16-F10 cells assessed as kidney tissue necrosis at 0.4 mg/kg, iv administered alternate days for 24 days followed by irradiation with pulsed laser at 730 nm for 10 mins after 24 hrs each post-injection by hematoxylin and eosin staining based assay; type: organism-based; conditions: in vivo, 600 h, 0.73 µM, time 25 day
[11] = tested on: HEK293; experiment: Induction of apoptosis in HEK293 cells assessed as necrotic cells at 5 uM with light irradiation incubated for 24 hrs by annexin-V-FITC and PI staining based flow cytometry analysis (reference value: 0 %); type: functional, Homo sapiens
[12] = Photorelease activity in PBS buffer at pH 7.4 assessed as release of CO using 3',6'-Bis(allyloxy)-3H-spiro(isobenzofuran-1,9'-xanthen)-3-one fluorescent probe at 500 uM irradiated with >= 365 nm Hg lamp for 30 mins in presence of PdCl2 by absorption spectroscopy; type: physicochemical; conditions: pH 7.4, 0.5 h
[13] = Photorelease ability in PBS buffer at pH 7.4 assessed as compound decomposition at 0.1 mM irradiated with pulsed laser at 730 nm for 30 mins by RP-HPLC analysis; type: physicochemical; conditions: read-out: Drug degradation
[14] = Photorelease ability in PBS buffer at pH 7.4 assessed as retention time of 1,1'-(9-ethyl-9H-carbazole-3,6-diyl)bis(2,2-dihydroxyethanone) formation at 100 uM irradiated with >= 365 nm Hg lamp for 30 mins by RP-HPLC analysis; type: physicochemical; conditions: pH 7.4, 0.5 h
[15] = tested on: B16-F10; experiment: Antitumor activity against mouse B16-F10 cells bearing C57BL/6J mouse assessed as tumor growth inhibition at 0.4 mg/kg, iv administered alternate days for 24 days followed by irradiation with pulsed laser at 730 nm for 10 mins after 24 hrs each post-injection by slide caliper method; type: functional, organism-based; conditions: time 25.0 day
[16] = Photorelease ability in PBS buffer at pH 7.4 assessed as retention time of 4-(6-(2,2-dihydroxyacetyl)-9-ethyl-9H-carbazol-3-yl)-1,3-dioxol-2-one formation at 100 uM irradiated with >= 365 nm Hg lamp for 30 mins by RP-HPLC analysis; type: physicochemical; conditions: pH 7.4, 0.5 h
[17] = Drug uptake in mouse B16-F10 cells assessed as drug internalization by measuring blue fluorescence at 20 uM incubated for 4 hrs followed by propidium iodide staining based confocal laser scanning microscopy; type: ADME, cell-based; conditions: b16-f10, 4 h
[18] = tested on: HEK293; experiment: Induction of apoptosis in HEK293 cells assessed as late apoptotic cells at 5 uM with light irradiation incubated for 24 hrs by annexin-V-FITC and PI staining based flow cytometry analysis (reference value: 0 %); type: functional, Homo sapiens
[19] = Photorelease activity in PBS buffer at pH 7.4 assessed as 1,1'-(9-ethyl-9H-carbazole-3,6-diyl)bis(2,2-dihydroxyethanone) photoproduct formation by measuring lambda 485 nm green emission band excited at wavelength of 350 nm for 30 mins by fluorescence spectroscopy; type: physicochemical; conditions: pH 7.4, 0.5 h
[20] = Stability of compound in PBS buffer at pH 7.4 at 100 uM incubated for 72 hrs under dark condition in presence of cysteine by Reverse-phase HPLC analysis; type: physicochemical; conditions: read-out: Stability
[21] = tested on: B16-F10; experiment: Induction of apoptosis in mouse B16-F10 cells assessed as necrotic cells at 5 uM incubated for 24 hrs by annexin-V-FITC and PI staining based flow cytometry analysis (reference value: 0 %); type: functional
[22] = Photorelease ability in PBS buffer at pH 7.4 assessed as retention time of compound decomposition at 100 uM irradiated with >= 365 nm Hg lamp for 30 mins by RP-HPLC analysis; type: physicochemical; conditions: pH 7.4, 0.5 h
[23] = Photorelease activity in PBS buffer at pH 7.4 assessed as MbCO formation by measuring change in absorbance intensity at 500 uM irradiated with >= 365 nm Hg lamp for 30 mins in presence of deoxy-myoglobin by absorption spectroscopy; type: physicochemical; conditions: pH 7.4, 0.5 h
[24] = Photorelease activity in PBS buffer at pH 7.4 assessed as release of CO at 500 uM irradiated with pulsed laser at 730 nm for 30 mins by absorption spectroscopy; type: physicochemical; conditions: pH 7.4, 0.5 h
[25] = Photorelease ability in PBS buffer at pH 7.4 assessed as compound decomposition at 100 uM irradiated with >= 365 nm Hg lamp upto 30 mins by UV absorption spectroscopy; type: physicochemical; conditions: read-out: Drug degradation
[26] = tested on: HEK293; experiment: Induction of apoptosis in HEK293 cells assessed as necrotic cells at 5 uM incubated for 24 hrs by annexin-V-FITC and PI staining based flow cytometry analysis (reference value: 0 %); type: functional, Homo sapiens
[27] = tested on: B16-F10; experiment: Cytotoxicity against mouse B16-F10 cells assessed as cell viability at 1.25 to 10 uM irradiated with >= 365 nm Hg lamp for 5 mins after 6 hrs post-treatment and further incubated for 72 hrs by MTT assay; type: functional; conditions: dose 1.25-10 µM, time 78 hrs
[28] = Toxicity in C57BL/6J mouse model harboring mouse B16-F10 cells assessed as heart tissue necrosis at 0.4 mg/kg, iv administered alternate days for 24 days followed by irradiation with pulsed laser at 730 nm for 10 mins after 24 hrs each post-injection by hematoxylin and eosin staining based assay; type: organism-based; conditions: in vivo, 600 h, 0.73 µM, time 25 day

SMILES: CCn1c2ccc(-c3coc(=O)o3)cc2c2cc(-c3coc(=O)o3)ccc21
- Drug metabolism [1]: Tde
- Drug uptake [2]: Active
- Activity [3]: 0%
- Drug uptake [4]: Active
- Activity [5]: 0.5%
- remaining at 72 h, 100 µM [6]: 96%
- Activity [7]: 0.9%
- Drug uptake [8]: Active
- Activity [9]: 0.2%
- Activity [10]: Non-Toxic
- Activity [11]: 0%
- Drug metabolism [12]: 12 ppm
- degraded at 0.5 h, 100 µM [13]: 37%
- Retention_time [14]: 8.82 min
- Activity [15]: Active
- Retention_time [16]: 8.05 min
- Drug uptake [17]: Active
- Activity [18]: 7.3%
- Drug metabolism [19]: Active
- remaining at 72 h, 100 µM [20]: 92%
- Activity [21]: 0%
- Retention_time [22]: 6.21 min
- Drug metabolism [23]: Active
- Drug metabolism [24]: 4.5 ppm
- degraded at 0.5 h, 100 µM [25]: 100%
- Activity [26]: 0%
- Activity [27]: 20%
- Activity [28]: Non-Toxic
